How the values were obtained:
Assay type in all cases: biochemical
baculoviral GST-MLK2KDLZ = target: T1, baculoviral GST-MLK2KDLZ (Homo sapiens, UniProt Q02779); test: Mixed Lineage Kinase-2 inhibition assay (Millipore Multiscreen plate, 32P); settings: 1 uM compound; 100 μM ATP
T1 construct: 3 μg/ml of baculoviral GST-MLK2KDLZ; GST (N); host or cells: baculovirus expression system
Method: Inhibition of Mixed Lineage Kinase-2 Activity
Assays were performed using the Millipore Multiscreen plate format as described for MLK1. Each 50-μl assay mixture contained 20 mM Hepes, pH 7, 1 mM EGTA, 10 mM MgCl2, 1 mM DTT, 25 mM β-glycerophosphate, 100 μM ATP, 0.25 μCi [γ-^32P]ATP, 0.1% BSA, 500 μg/ml myelin basic protein (UBI #13-104), 2% DMSO, various concentrations of test compound, and 3 μg/ml of baculoviral GST-MLK2KDLZ. Samples were incubated for 15 min. at 37° C. The reaction was stopped by adding ice cold 50% TCA and the proteins were allowed to precipitate for 30 min at 4° C. The plates were then washed with ice cold 25% TCA Supermix scintillation cocktail was added, and the plates were allowed to equilibrate for 1-2 hours prior to counting.

[1] = target: T2, recombinant human baculovirus-expressed VEGFR1 cytoplasmic domain (Homo sapiens, UniProt P17948); test: VEGFR1 kinase inhibition assay (ELISA-based, time-resolved fluorescence); settings: 1 uM compound; 30 μM ATP
T2 construct: recombinant human baculovirus-expressed VEGFR1 cytoplasmic domain; host or cells: baculovirus expression system
T2 sequence (P17948 781-1338 limits assumed): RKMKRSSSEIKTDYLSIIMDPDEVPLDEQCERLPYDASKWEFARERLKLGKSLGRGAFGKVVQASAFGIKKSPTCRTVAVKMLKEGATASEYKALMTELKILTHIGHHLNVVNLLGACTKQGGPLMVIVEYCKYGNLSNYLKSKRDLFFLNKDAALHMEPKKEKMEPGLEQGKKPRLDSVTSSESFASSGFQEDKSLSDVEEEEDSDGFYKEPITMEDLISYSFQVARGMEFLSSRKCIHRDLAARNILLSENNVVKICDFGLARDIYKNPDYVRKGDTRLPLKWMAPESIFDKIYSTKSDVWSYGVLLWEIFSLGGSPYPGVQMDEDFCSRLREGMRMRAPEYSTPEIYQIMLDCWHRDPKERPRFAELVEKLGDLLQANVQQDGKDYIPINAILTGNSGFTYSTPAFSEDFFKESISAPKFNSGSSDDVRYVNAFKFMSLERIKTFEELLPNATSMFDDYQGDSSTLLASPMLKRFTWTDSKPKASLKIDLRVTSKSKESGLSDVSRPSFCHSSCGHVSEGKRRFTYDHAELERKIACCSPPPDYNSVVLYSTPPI
Method: Inhibition of Vascular Endothelial Growth Factor Receptor-1 Kinase Activity
The VEGFR1 kinase activity assay utilizes an ELISA-based format in a 96-well FluoroNUNC Maxisorp plate with a time-resolved fluorescence readout. The plate was coated with 100 μl/well of substrate solution (recombinant human PLC-γ/GST) at a concentration of 40 μg/ml in Tris buffered saline (TBS). The VEGFR1 activity was assayed in 100-μl assay micture containing 50 mM HEPES (pH 7.4), 30 μM ATP, 10 mM MnCl2, 0.1% BSA, 2% DMSO, and 300 ng/ml prephosphorylated recombinant human baculovirus-expressed VEGFR1 cytoplasmic domain. Compounds were screened for inhibition of the VEGFR1 kinase activity at a concentration of 1 μM. The kinase reaction was allowed to proceed at 37° C. for 15 minutes. The detection antibody, europium-labeled anti-phosphotyrosine antibody (Wallac #CR04-100), was added at 1:5000 dilution in block buffer (3% BSA in TBST). After a 1-hour incubation at 37° C., 100 μl of enhancement solution (Wallac #1244-105) was added and the plate was gently agitated. After 5 min, the fluorescence of the resulting solution was measured using the BMG Fluostar (Model # 403).

[2] = target: T3, recombinant human baculoviral VEGFR2 cyctoplasmic domain (Homo sapiens, UniProt P35968); test: VEGFR2 kinase inhibition assay (ELISA-based, time-resolved fluorescence); settings: 1 uM compound; 30 μM ATP
T3 construct: recombinant human baculoviral VEGFR2 cyctoplasmic domain; host or cells: baculovirus expression system
T3 sequence (P35968 786-1356 limits assumed): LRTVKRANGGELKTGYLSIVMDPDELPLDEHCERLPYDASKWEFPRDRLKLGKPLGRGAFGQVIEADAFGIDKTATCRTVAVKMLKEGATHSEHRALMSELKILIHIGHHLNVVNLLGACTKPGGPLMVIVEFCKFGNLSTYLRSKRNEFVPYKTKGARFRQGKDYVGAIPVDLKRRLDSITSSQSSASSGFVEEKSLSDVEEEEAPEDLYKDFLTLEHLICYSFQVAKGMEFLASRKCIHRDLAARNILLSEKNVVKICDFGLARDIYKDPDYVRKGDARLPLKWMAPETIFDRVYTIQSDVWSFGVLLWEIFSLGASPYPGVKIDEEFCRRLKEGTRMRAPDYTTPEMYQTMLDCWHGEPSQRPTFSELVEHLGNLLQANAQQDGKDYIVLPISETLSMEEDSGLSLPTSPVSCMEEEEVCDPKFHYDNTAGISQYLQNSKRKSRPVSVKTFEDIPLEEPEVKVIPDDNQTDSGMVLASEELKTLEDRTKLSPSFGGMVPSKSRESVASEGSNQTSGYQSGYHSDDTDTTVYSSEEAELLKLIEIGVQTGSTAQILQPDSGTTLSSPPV

T1 sequence (Q02779 98-440 limits assumed): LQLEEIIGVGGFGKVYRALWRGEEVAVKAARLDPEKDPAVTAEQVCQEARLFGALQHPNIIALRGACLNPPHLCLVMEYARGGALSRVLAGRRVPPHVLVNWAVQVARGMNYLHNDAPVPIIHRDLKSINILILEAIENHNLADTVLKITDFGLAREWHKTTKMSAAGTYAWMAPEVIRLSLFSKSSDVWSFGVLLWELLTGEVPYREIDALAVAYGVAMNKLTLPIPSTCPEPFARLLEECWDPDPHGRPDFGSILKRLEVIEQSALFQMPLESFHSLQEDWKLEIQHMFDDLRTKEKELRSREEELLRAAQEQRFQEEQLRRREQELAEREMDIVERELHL

For `N#CCCn1cc(C=C2C(=O)NN=C2c2cccs2)c2ccccc21` [Compound 66], the “MLK-2 Kinase % inhibition @ 1 uM” value (baculoviral GST-MLK2KDLZ) was 5%, the “VEGFR-1 kinase % inhibition @ 1 uM” value [1] was 24% and the “VEGFR-2 kinase % inhibition @ 1 uM” value [2] was 32%.
In the case of `Cc1ccc2c(C=C3C(=O)NN=C3c3ccn(C)c3)c[nH]c2c1` [Compound 33], the “MLK-2 Kinase % inhibition @ 1 uM” value (baculoviral GST-MLK2KDLZ) is reported as −13%, the “VEGFR-1 kinase % inhibition @ 1 uM” value [1] is reported as 36% and the “VEGFR-2 kinase % inhibition @ 1 uM” value [2] is reported as 25%.
For `COc1ccc2[nH]cc(C=C3C(=O)NN=C3c3ccco3)c2c1` [Compound 51], the “MLK-2 Kinase % inhibition @ 1 uM” value (baculoviral GST-MLK2KDLZ) was 3%, the “VEGFR-1 kinase % inhibition @ 1 uM” value [1] was 25% and the “VEGFR-2 kinase % inhibition @ 1 uM” value [2] was 55%.
For `COc1ccc2[nH]cc(C=C3C(=O)NN=C3c3ccoc3)c2c1` [Compound 11], the “MLK-2 Kinase % inhibition @ 1 uM” value (baculoviral GST-MLK2KDLZ) was 7%, the “VEGFR-1 kinase % inhibition @ 1 uM” value [1] was 23% and the “VEGFR-2 kinase % inhibition @ 1 uM” value [2] was 50%.
In the case of `Cn1cc(C=C2C(=O)NN=C2c2cc3ccccc3o2)c2ccccc21` [Compound 59], the “MLK-2 Kinase % inhibition @ 1 uM” value (baculoviral GST-MLK2KDLZ) is reported as −8%, the “VEGFR-1 kinase % inhibition @ 1 uM” value [1] is reported as −2% and the “VEGFR-2 kinase % inhibition @ 1 uM” value [2] is reported as 14%.
`COC(=O)c1ccc2[nH]cc(C=C3C(=O)NN=C3c3ccoc3)c2c1` [Compound 16] was tested, and the “MLK-2 Kinase % inhibition @ 1 uM” value (baculoviral GST-MLK2KDLZ) was 7%, the “VEGFR-1 kinase % inhibition @ 1 uM” value [1] was 18% and the “VEGFR-2 kinase % inhibition @ 1 uM” value [2] was 34%.
For `CC(C)Cn1cc(C=C2C(=O)NN=C2c2nccs2)c2ccccc21` [Compound 73], the “MLK-2 Kinase % inhibition @ 1 uM” value (baculoviral GST-MLK2KDLZ) was 12%, the “VEGFR-1 kinase % inhibition @ 1 uM” value [1] was 12% and the “VEGFR-2 kinase % inhibition @ 1 uM” value [2] was 15%.
In the case of `O=C1NN=C(c2ccco2)C1=Cc1cn(CCOCc2ccccc2)c2ccccc12` [Compound 71], the “MLK-2 Kinase % inhibition @ 1 uM” value (baculoviral GST-MLK2KDLZ) is reported as 3%, the “VEGFR-1 kinase % inhibition @ 1 uM” value [1] is reported as 12% and the “VEGFR-2 kinase % inhibition @ 1 uM” value [2] is reported as −1%.
In the case of `O=C1NN=C(c2cccs2)C1=Cc1cn(Cc2ccccc2)c2ccccc12` [Compound 75], the “MLK-2 Kinase % inhibition @ 1 uM” value (baculoviral GST-MLK2KDLZ) is reported as −5%, the “VEGFR-1 kinase % inhibition @ 1 uM” value [1] is reported as 5% and the “VEGFR-2 kinase % inhibition @ 1 uM” value [2] is reported as 32%.
In the case of `Cn1cc(C=C2C(=O)NN=C2c2ccoc2)c2ccccc21` [Compound 20], the “MLK-2 Kinase % inhibition @ 1 uM” value (baculoviral GST-MLK2KDLZ) is reported as −3%, the “VEGFR-1 kinase % inhibition @ 1 uM” value [1] is reported as 45% and the “VEGFR-2 kinase % inhibition @ 1 uM” value [2] is reported as 67%.
`Cc1cc(C)c(C=C2C(=O)NN=C2c2c(C)coc2C)[nH]1` [Compound 27] was tested, and the “MLK-2 Kinase % inhibition @ 1 uM” value (baculoviral GST-MLK2KDLZ) was −4%, the “VEGFR-1 kinase % inhibition @ 1 uM” value [1] was 11% and the “VEGFR-2 kinase % inhibition @ 1 uM” value [2] was 40%.

Reference: patent publication US6831075B2, “Heterocyclic substituted pyrazolones” (Cephalon, Inc., priority 1999, dated 2004)
